Assay results from patent publication US11768156B2, “Methods and compositions for assessing cell viability” (Life Technologies Corporation, priority 2017, dated 2023).

Key:
Format in all cases: cell-based
Jurkat cells [1] = test system: Jurkat cells
Jurkat cells [2] = experiment: Flow cytometry of 50% live/50% dead Jurkat cell mixtures, fixed and permeabilized
untreated Jurkat cells = experiment: Flow cytometry of untreated Jurkat cells in PBS or complete media; conditions: 25 μM, five minutes, PBS and complete media
Method: Populations of untreated Jurkat cells in either PBS or complete media were incubated with 25 μM Compound 2 for five minutes and analyzed by flow cytometry. Results are shown in FIGS. 4A-4B (PBS and complete media, respectively).

Jurkat cells [3] = experiment: Flow cytometry of live and heat-treated Jurkat cells stained in PBS or complete media
Jurkat cells [4] = experiment: Flow cytometry of 50% live/50% dead Jurkat cell mixtures fixed with 4% formaldehyde; conditions: 25 μM dye, PBS or complete media, substantial majority of live cells

N=c1ccc2c(-c3ccc(C(=O)NCCCCCNC(=O)CCCc4ccc(N(CCCl)CCCl)cc4)cc3C(=O)O)c3ccc(N)c(S(=O)(=O)O)c3oc-2c1S(=O)(=O)O [Compound 2]
difference of unstained control from live cell peaks, peak to peak (Jurkat cells [1]): 1-1.5 logs | separation of dead cell peaks from the live cell peaks (Jurkat cells [1]): good separation | separation of dead cells from live cells, peak to peak (Jurkat cells [1]): over 2 logs | staining of live cells (versus unstained control) (Jurkat cells [1]): negligible | separation of live cells from dead cells (Jurkat cells [2]; fixed and permeabilized, 25 μM dye, PBS or complete media, substantial majority of live cells): two logs of separation | histogram peaks for staining in media versus in PBS (FIGS. 3A, 3B) (Jurkat cells [2]; fixed, permeabilized cells): mostly or partially overlap | strongly labeled peaks corresponding to dead cells (untreated Jurkat cells): 7-14 % of total cells | variation in intensity of staining due to the presence of complete media (Jurkat cells [3]; 25 μM dye, PBS versus complete media): little to no variation in intensity of staining | separation of live and dead cells in histograms (Jurkat cells [3]; 25 μM dye, stained in PBS and in complete media (RPMI+10FBS), 488 nm excitation, 530/30 nm emission): clear separation of live and dead cells | histogram peaks for staining in media versus in PBS (FIGS. 1B, 1C) (Jurkat cells [3]; live and dead cell peaks, media and PBS): overlap | separation of live cells from dead cells (Jurkat cells [4]): two logs of separation
